How the values were obtained:
[1] = tested on: DUB activity; test: Western / HA-UbVS labeling of DUB activity in intact cells; format: cell-based
Experimental: (§1) To assay for changes in activity of cellular deubiquitinase enzymes, leukemic cells were lysed in DUB buffer (50 mM Tris pH 7.4, 5 mM MgCl2, 150 mM NaCl) for 10 min at 4° C. The lysates were centrifuged at 20,000 RCF for 10 min and the supernatant was used for DUB labeling. Equal amounts of lysate were incubated with 500 ng of HA-UbVs for 1 hr at room temperature, followed by boiling in reducing sample buffer and resolving by SDS-PAGE. HA immunoblotting was used to detect DUB labeling.
as §1, with “Z138 and HEK293” for “leukemic”, “RFC” for “RCF”, “SDS-PAGE. After protein transfer to nitrocellulose membranes,” for “SDS-PAGE.”
Cancer Res, 2010. 70(22): p. […] Blood, 2011. 117(11): p. […] Biochem Pharmacol, 2011. 82(4): p. […] Blood, 2007. 109(8): p. 3470-8.

[2] = target: UCH-L1 (Homo sapiens, UniProt P09936); test: Ub-AMC assay on purified DUB; format: biochemical; conditions: 5 μM
Sequence of UCH-L1 (P09936 whole entry, species assumed): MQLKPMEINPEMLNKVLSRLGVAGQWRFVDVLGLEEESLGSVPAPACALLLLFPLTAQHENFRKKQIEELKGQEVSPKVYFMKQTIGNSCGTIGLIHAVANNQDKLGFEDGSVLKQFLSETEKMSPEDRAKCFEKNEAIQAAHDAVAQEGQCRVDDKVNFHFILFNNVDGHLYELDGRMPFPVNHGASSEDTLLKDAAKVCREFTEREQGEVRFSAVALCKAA
Experimental: (§2) Purified DUBs at optimal concentrations (USPS; 20 nM, UCH-L1; 20 nM, UCH-L3; 5 nM, USP9x; immunoprecipitated from 500 μg Z138 cell lysate) were incubated in DUB buffer containing WP1130, vehicle alone (DMSO) or 1 mM NEM (positive control for DUB inhibition) in a 100 μL reaction volume for 30 min. The reaction was initiated by the addition of 500 nM Ub-AMC and the release of AMC-fluorescence was recorded at ex/em 380/480 using a spectrofluorometer.
(§3) USP9x was immunoprecipitated from Z138 cell lysates, prepared in DUB buffer and the beads were incubated with vehicle alone or WP1130 for 30 min. Ub-AMC (500 nM) was added to each reaction and fluorescence was monitored every minute for up to 30 minutes. The maximum fluorescence observed at the end of the linear phase of substrate cleavage in control and WP1130 treated DUBs was used as a gauge to estimate DUB activity and % inhibition. Treatment with 5 μM WP1130 reduced the activities of USP9x, USP5 and UCH-L1 by 80% or more.

[3] = target: UCH-L3 (Homo sapiens, UniProt P15374); test: Ub-AMC assay on purified DUB; format: biochemical
Sequence of UCH-L3 (P15374 whole entry, species assumed): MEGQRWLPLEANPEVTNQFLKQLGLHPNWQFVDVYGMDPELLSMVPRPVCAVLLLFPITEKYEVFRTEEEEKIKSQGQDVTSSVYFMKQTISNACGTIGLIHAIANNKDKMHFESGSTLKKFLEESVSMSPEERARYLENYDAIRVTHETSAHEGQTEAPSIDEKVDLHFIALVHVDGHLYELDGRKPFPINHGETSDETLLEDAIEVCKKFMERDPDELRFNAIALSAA
Experimental: as §2, §3

[4] = target: T1, USP5 (Homo sapiens, UniProt P45974); test: Ub-AMC assay on purified DUB; format: biochemical; conditions: 5 μM
T1 construct: endogenous in cells; host or cells: Z138
T1 sequence (P45974 1-858): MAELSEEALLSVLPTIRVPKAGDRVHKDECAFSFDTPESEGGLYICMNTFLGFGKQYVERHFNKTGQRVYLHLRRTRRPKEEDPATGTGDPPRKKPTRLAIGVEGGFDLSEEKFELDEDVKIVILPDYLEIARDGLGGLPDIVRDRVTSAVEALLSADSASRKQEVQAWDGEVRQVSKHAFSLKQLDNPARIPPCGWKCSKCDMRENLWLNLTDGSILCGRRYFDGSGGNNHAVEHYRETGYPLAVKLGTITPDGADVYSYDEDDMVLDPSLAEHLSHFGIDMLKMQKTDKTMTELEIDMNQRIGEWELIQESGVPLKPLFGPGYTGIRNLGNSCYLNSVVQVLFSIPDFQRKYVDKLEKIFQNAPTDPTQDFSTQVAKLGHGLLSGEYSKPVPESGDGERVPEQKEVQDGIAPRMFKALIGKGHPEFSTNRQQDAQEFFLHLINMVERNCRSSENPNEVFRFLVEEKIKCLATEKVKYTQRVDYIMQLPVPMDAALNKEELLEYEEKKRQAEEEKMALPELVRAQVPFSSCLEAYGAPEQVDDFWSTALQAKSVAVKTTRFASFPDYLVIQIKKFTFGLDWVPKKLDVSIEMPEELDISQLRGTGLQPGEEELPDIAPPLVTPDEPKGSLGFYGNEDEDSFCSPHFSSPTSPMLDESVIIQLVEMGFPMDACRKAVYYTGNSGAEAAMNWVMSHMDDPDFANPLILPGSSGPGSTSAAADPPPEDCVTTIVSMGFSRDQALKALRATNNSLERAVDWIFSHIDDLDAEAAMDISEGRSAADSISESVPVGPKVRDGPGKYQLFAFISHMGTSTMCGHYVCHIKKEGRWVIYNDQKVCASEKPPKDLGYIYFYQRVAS
Experimental: as §2, §3

[5] = target: T1, USP5; test: HA-UbVs labeling of USP5; format: cell-based
Experimental: as §1, with “Z138 and HEK293” for “leukemic”, “RFC” for “RCF”, “SDS-PAGE. After protein transfer to nitrocellulose membranes,” for “SDS-PAGE.”
Hemagglutinin-tagged ubiquitin vinyl methyl sulfone (HA-UbVs) acts as a DUB suicide substrate, forming a covalent adduct with active DUB enzymes. Specific cellular DUBs can be identified by anti-HA blotting, as previously shown in various cell types. Changes in specific DUB activities are measurable by monitoring HA-labeling in lysates from control and treated cells. […]
as §3, with “Treatment with 5 μM WP1130 reduced the activities of USP9x, USP5 and UCH-L1 by 80% or more.” left out

Compound: CCC[C@H](NC(=O)/C(C#N)=C/c1cccc(Br)n1)c1ccccc1 [WP1130]
- blocking MNV-1 or DUB activation associated with MNV-1 infection ([1]; RAW 264.7, 1.25 μM): ineffective
- DUB activity induced by MNV-1 infection (HA-UbVS) ([1]; RAW 264.7, anti-viral effective concentrations): block DUB activity
- reduction of UCH-L1 activity [2]: ≥ 80%
- inhibition of UCH-L3 activity [3]: No inhibition
- reduction of USP5 activity [4]: ≥ 80%
- reduction in HA labeling of USP5 ([5]; HA-UbVs labeling upon incubation with compound): about 80%
- HA-UbVS labeling of USPS ([5]; Z138 cells, 1, 5 or 10 μM, 1 hour): dose-dependent and time reduction in the labeling
